We go through two molecules from ChEMBL document CHEMBL1159211, “Antifungal evaluation of pseudolaric acid B, a major constituent of Pseudolarix kaempferi” (J Nat Prod, 1995).

For test [1], the system named is Candida albicans. Briefly: Antimicrobial activity against Candida albicans at 1 mg/mL by agar-well diffusion assay. The following applies: Candida albicans; read-out: IZ. The test is classed as functional. A general note: A growth-free zone around the sample is the usual read-out of agar diffusion tests.
The subject of test [2] is Aspergillus flavus. Briefly: Antimicrobial activity against Aspergillus flavus at 1 mg/mL by agar-well diffusion assay. In kind it is functional.
For test [3], the system named is Aspergillus fumigatus. Briefly: Antimicrobial activity against Aspergillus fumigatus at 1 mg/mL by agar-well diffusion assay. The test is classed as functional.
For test [4], the system named is Cryptococcus neoformans. Briefly: Antimicrobial activity against Cryptococcus neoformans at 1 mg/mL by agar-well diffusion assay. The test is classed as functional.
Test [5] has as its system Trichophyton mentagrophytes. Briefly: Antimicrobial activity against Trichophyton mentagrophytes at 1 mg/mL by agar-well diffusion assay. The test is classed as functional.
Test [6] relates to Nannizzia gypsea. Briefly: Antimicrobial activity against Microsporum gypseum at 1 mg/mL by agar-well diffusion assay. The test is classed as functional.
For test [7], the system named is Saccharomyces cerevisiae. Briefly: Antimicrobial activity against Saccharomyces cerevisiae at 1 mg/mL by agar-well diffusion assay. The test is classed as functional, organism-based.
Test [8] deals with Escherichia coli. Briefly: Antimicrobial activity against Escherichia coli at 1 mg/mL by agar-well diffusion assay. The test is classed as functional, organism-based.
Test [9] relates to Staphylococcus aureus. Briefly: Antimicrobial activity against Staphylococcus aureus at 1 mg/mL by agar-well diffusion assay. In kind it is functional, organism-based.
Test [10] relates to Bacillus subtilis. Briefly: Antimicrobial activity against Bacillus subtilis at 1 mg/mL by agar-well diffusion assay. The test is classed as functional, organism-based.
Test [11] concerns Pseudomonas aeruginosa. Briefly: Antimicrobial activity against Pseudomonas aeruginosa at 1 mg/mL by agar-well diffusion assay. In kind it is functional, organism-based.
Test [12] concerns Mycobacterium intracellulare. Briefly: Antimicrobial activity against Mycobacterium intracellular at 1 mg/mL by agar-well diffusion assay. In kind it is functional.
Test [13] has as its system Candida albicans. Briefly: Antifungal activity against Candida albicans NIH B311 infected in mouse assessed as reduction in number of recovered colony-forming units assessed per mg of kidney at 20 mg/kg, ip administered 7 and 24 hrs after infection measured 16 hrs after final injection by tenfold serial dilution method relative to control. In kind it is functional, organism-based. Details: dose 20 mg/kg.

The subject of test [14] is Candida albicans. Briefly: Antifungal activity against Candida albicans NIH B311 infected in mouse assessed as reduction in number of recovered colony-forming units assessed per mg of kidney at 7 mg/kg, ip administered 7 and 24 hrs after infection measured 16 hrs after final injection by tenfold serial dilution method relative to control. The test is classed as functional. On the set-up: scale not given: the % may be the effect or the level left. The following applies: route intraperitoneal.

Test [15] deals with Candida albicans. Briefly: Antifungal activity against Candida albicans NIH B311 infected in mouse assessed as reduction in number of recovered colony-forming units assessed per mg of kidney at 3 mg/kg, ip administered 7 and 24 hrs after infection measured 16 hrs after final injection by tenfold serial dilution method relative to control. In kind it is functional. Details: scale not given: the % may be the effect or the level left. The conditions noted are these: route intraperitoneal.

Test [16] has as its system Candida albicans. Briefly: Antifungal activity against Candida albicans NIH B311 infected in mouse tissue-burden model assessed as reduction in number of recovered colony-forming units assessed per mg of kidney at 3.5 mg/kg, ip administered 7 and 24 hrs after infection measured 16 hrs after final injection by tenfold serial dilution method relative to control. The test is classed as functional. Details: scale not given: the % may be the effect or the level left. The conditions noted are these: route intraperitoneal.

In test [17] the test system is Candida albicans. Briefly: Antifungal activity against Candida albicans B311 at 1 mg/mL by agar-well diffusion assay. In kind it is functional. The following applies: Candida albicans, B311; read-out: IZ.
In test [18] the test system is Candida albicans. Briefly: Antifungal activity against Candida albicans ATCC 10231 at 1 mg/mL by agar-well diffusion assay. The test is classed as functional. The following applies: Candida albicans, ATCC 10231; read-out: IZ.
Test [19] has as its system Starmerella magnoliae. Briefly: Antifungal activity against Candida magnoliae ATCC 12573 at 1 mg/mL by agar-well diffusion assay. In kind it is functional. The conditions noted are these: ATCC 12573; read-out: IZ.
Test [20] has as its system Candida parapsilosis. Briefly: Antifungal activity against Candida parapsilosis ATCC 20224 at 1 mg/mL by agar-well diffusion assay. In kind it is functional. The following applies: Lodderomyces parapsilosis, ATCC 20224; read-out: IZ.
Test [21] concerns Candida albicans. Briefly: Antifungal activity against Candida stellatoidea SA-I at 1 mg/mL by agar-well diffusion assay. The test is classed as functional. The conditions noted are these: Candida albicans; read-out: IZ.
Test [22] concerns Candida tropicalis. Briefly: Antifungal activity against Candida tropicalis ATCC 20326 at 1 mg/mL by agar-well diffusion assay. The test is classed as functional. The following applies: Candida tropicalis, ATCC 20326; read-out: IZ.
Test [23] has as its system Candida tropicalis. Briefly: Antifungal activity against Candida tropicalis ATCC 20021 at 1 mg/mL by agar-well diffusion assay. In kind it is functional. The conditions noted are these: Candida tropicalis, ATCC 20021; read-out: IZ.
In test [24] the test system is Candida tropicalis. Briefly: Antifungal activity against Candida tropicalis LM 64 at 1 mg/mL by agar-well diffusion assay. The conditions noted are these: Candida tropicalis; read-out: IZ. In kind it is functional.
Test [25] has as its system Yarrowia deformans. Briefly: Antifungal activity against Torulopsis petrophilum ATCC 20225 at 1 mg/mL by agar-well diffusion assay. In kind it is functional. The conditions noted are these: Yarrowia deformans, ATCC 20225; read-out: IZ.
In test [26] the test system is Torula. Briefly: Antifungal activity against Torula cremoris NRRL 7495 at 1 mg/mL by agar-well diffusion assay. The test is classed as functional. The conditions noted are these: Torula, NRRL 7495; read-out: IZ.
Test [27] relates to Candida albicans. Briefly: Antifungal activity against Candida albicans B311 by twofold serial broth dilution method. In kind it is functional.
Test [28] concerns Candida albicans. Briefly: Antifungal activity against Candida albicans ATCC 10231 by twofold serial broth dilution method. In kind it is functional.
Test [29] concerns Candida parapsilosis. Briefly: Antifungal activity against Candida parapsilosis ATCC 20224 by twofold serial broth dilution method. The conditions noted are these: Lodderomyces parapsilosis. In kind it is functional.
For test [30], the system named is Candida albicans. Briefly: Antifungal activity against Candida stellatoidea SA-I by twofold serial broth dilution method. The test is classed as functional. (Broth dilution looks for growth in wells or tubes with falling amounts of substance.)
Test [31] concerns Candida tropicalis. Briefly: Antifungal activity against Candida tropicalis ATCC 20326 by twofold serial broth dilution method. The test is classed as functional.
Test [32] concerns Candida tropicalis. Briefly: Antifungal activity against Candida tropicalis ATCC 20021 by twofold serial broth dilution method. The test is classed as functional.
The test system of test [33] is Candida tropicalis. Briefly: Antifungal activity against Candida tropicalis LM 64 by twofold serial broth dilution method. The test is classed as functional.
The test system of test [34] is Yarrowia deformans. Briefly: Antifungal activity against Torulopsis petrophilum ATCC 20225 by twofold serial broth dilution method. The test is classed as functional.
In test [35] the test system is Torula. Briefly: Antifungal activity against Torula cremoris NRRL 7495 by twofold serial broth dilution method. The test is classed as functional.
For test [36], the system named is Candida albicans. Briefly: Antifungal activity against Candida albicans NIH B311 infected in mouse assessed as reduction in number of recovered colony-forming units assessed per mg of kidney at 1 mg/kg, ip administered 7 and 24 hrs after infection measured 16 hrs after final injection by tenfold serial dilution method relative to control. In kind it is functional. Details: scale not given: the % may be the effect or the level left. The conditions noted are these: route intraperitoneal.

≈ marks a conversion by molar mass, not a printed value. Calls of active or inactive are those of the source. The rule behind the calls is not given here.

For the molecule `COC(=O)C1=CC[C@@]23CC[C@@H]([C@@](C)(/C=C/C=C(\C)C(=O)O[C@@H]4O[C@H](CO)[C@@H](O)[C@H](O)[C@H]4O)OC2=O)[C@@]3(OC(C)=O)CC1`, in test [1], the zone of inhibition at 1000 µg/mL is less than 1 mm. Further, the result in test [2], in test [3], in test [4], in test [5], in [6] and in test [7] was inactive. Further, the result in test [8], in [9], in [10], in [11], in test [12] and in test [13] was inactive. Further, the Activity in test [14] came out at 46.59%; in [15], 9.91%; in [16], 10%.

As a reminder, the MIC is the lowest concentration found to suppress growth. `C[C@@H]1[C@H](O)[C@@H](C)/C=C/C=C/C=C/C=C/C=C/C=C/C=C/[C@H](O[C@@H]2O[C@H](C)[C@@H](O)[C@H](N)[C@@H]2O)C[C@@H]2O[C@](O)(C[C@@H](O)C[C@@H](O)[C@H](O)CC[C@@H](O)C[C@@H](O)CC(=O)O[C@H]1C)C[C@H](O)[C@H]2C(=O)O` [AMPHOTERICIN B]: the zone of inhibition at 1000 µg/mL in test [17] came out at 7 mm; in test [18] it was 7 mm; in [19] it was 7 mm; in test [20], 3 mm; in test [21] it was 7 mm; in [22], 7 mm. For the same molecule, the zone of inhibition at 1000 µg/mL in [23], in test [24], in [25] and in [26] was 7 mm in each case. The minimum inhibitory concentration (MIC) in test [27] is 1.56 µg/mL (≈ 1.69 µM); in test [28], 3.12 µg/mL (≈ 3.38 µM); in test [29], 1.56 µg/mL (≈ 1.69 µM); in test [30] it was 3.12 µg/mL (≈ 3.38 µM); in test [31], 1.56 µg/mL (≈ 1.69 µM); in test [32], 3.12 µg/mL (≈ 3.38 µM). For the same molecule, the MIC came out at 1.56 µg/mL (≈ 1.69 µM) in [33], 0.2 µg/mL (≈ 0.216 µM) in test [34] and 3.12 µg/mL (≈ 3.38 µM) in test [35]. For the same molecule, the Activity in [36] came to 99.82%.
